From patent US9650390B2, “Water-soluble taxane derivatives and uses thereof” (priority 2014, dated 2017)
Counter-ions that a name gives are not always drawn.

Key:
[1] = tested on: human prostate cancer PC-3; assay: Inhibitory activity of docetaxel derivatives on subcutaneously xenografted tumor PC-3 in nude mice; assay type: in vivo; conditions: 33.6 mg/kg, D0 IV; for Weight change (%) D6: nude mice; for T/C (%) D20 / Tumor volume (mm^3) (D20) / Tumor inhibitory percent (%) D20 / Tumor volume (mm^3) (D0): PC-3 xenograft in nude mice; for Tumor inhibitory percent (%) D20: P = 0.000 vs control; for Tumor volume (mm^3) (D0): baseline at grouping (D0)
From the text: Purpose: to evaluate and compare the inhibitory activity of the water soluble docetaxel derivatives and docetaxel on subcutaneously xenografted tumor of human prostate cancer PC-3 in nude mice
Human prostate cancer PC-3 cells were subcutaneously inoculated into nude mice. After the tumor volume reached 100-150 mm^3, the animals were randomly divided into several groups, and administered with the water soluble docetaxel derivatives of the following formula and docetaxel, respectively once on the same day (D0). The tumor volume was measured 2-3 times per week, the animals were weighed and the data were recorded until day 20 (D20) after grouping.
The tumor volume (V) was calculated according to the equation: V=½×a×b^2, wherein a and b represent the length and the width, respectively.
T/C (%)=(T−T0)/(C−C0)×100, wherein T and C represent the tumor volume at the end of the experiment; and T0 and C0 represent the tumor volume at the beginning of the experiment.

[2] = In vitro dissociation in blood plasma of rat; assay type: in vitro ADME, SD rats; conditions: fresh SD rat plasma, 37° C.; for Sampling time/Dissociation percent (%) 2 min: 2 min incubation; for Sampling time/Dissociation percent (%) 5 min: 5 min incubation; for Sampling time/Dissociation percent (%) 10 min: 10 min incubation
Procedure: The obtained water soluble taxane derivatives of the following formulae were formulated as 0.2 mg/ml aqueous solutions. […] After 2 min, 5 min and 10 min of incubation, 0.2 ml of solutions were respectively taken from each of the samples, and added to acetonitrile (0.4 ml) cooled to −20° C. for precipitation of protein.

[3] = In vitro dissociation in blood plasma of rabbit; assay type: in vitro ADME, New Zealand white rabbits; conditions: fresh New Zealand white rabbit plasma, 37° C.
Procedure: The obtained water soluble taxane derivatives of the following formulae were formulated as 0.2 mg/ml aqueous solutions. […]

Compound	Weight change (%) D6 [1] [%]	T/C (%) D20 [1] [%]	Tumor volume (mm^3) (D20) [1]	Tumor inhibitory percent (%) D20 [1] [%]	Tumor volume (mm^3) (D0) [1]	Sampling time/Dissociation percent (%) 2 min [2] [%]	Sampling time/Dissociation percent (%) 5 min [2] [%]	Sampling time/Dissociation percent (%) 10 min [2] [%]	Sampling time/Dissociation percent (%) 2 min [3] [%]	Sampling time/Dissociation percent (%) 5 min [3] [%]	Sampling time/Dissociation percent (%) 10 min [3] [%]
CC(=O)O[C@@]12CO[C@@H]1C[C@H](O)[C@@]1(C)C(=O)[C@H](O)C3=C(C)[C@@H](OC(=O)[C@H](OC(=O)C(CCN(C)C)C(F)F)[C@@H](NC(=O)OC(C)(C)C)c4ccccc4)C[C@@](O)([C@@H](OC(=O)c4ccccc4)[C@H]21)C3(C)C.Cl (stereo partly drawn) [Compound C29, 2′-O-[4-N,N-dimethylamino-2(R,S)-2-difluoromethylbutyryl]docetaxel hydrochloride]	−15.1	−37	36.8 ± 13.4	85	116.7 ± 3.1	–	–	–	–	–	–
CCCCC(CC(F)(C(=O)OC(C(=O)OC1CC2(O)C(OC(=O)c3ccccc3)C3C4(OC(C)=O)COC4CC(O)C3(C)C(=O)C(OC(C)=O)C(=C1C)C2(C)C)C(NC(=O)c1ccccc1)c1ccccc1)C(F)(F)F)N(C)C1CCCC1.Cl (mixture of isomers) [Compound C15, 2′-O-[4-N-methyl-N-cyclopentylamino-2-trifluoromethyl-2-fluorooctanoyl]paclitaxel hydrochloride]	–	–	–	–	–	34.2	45.3	58.2	–	–	–
CCCC(CC(F)(F)C(=O)O[C@@H](C(=O)O[C@H]1C[C@@]2(O)[C@@H](OC(=O)c3ccccc3)[C@@H]3[C@]4(OC(C)=O)CO[C@@H]4C[C@H](O)[C@@]3(C)C(=O)[C@H](O)C(=C1C)C2(C)C)[C@@H](NC(=O)OC(C)(C)C)c1ccccc1)N1CC1.Cl (some centres unmarked) [Compound C14, 2′-O-[4-(aziridin-1-yl)amino-2,2-difluoroheptanoyl]docetaxel hydrochloride]	–	–	–	–	–	41.9	54.4	71.3	–	–	–
CCN(CC)CC[C@](C)(C(=O)O[C@@H](C(=O)O[C@H]1C[C@@]2(O)[C@@H](OC(=O)c3ccccc3)[C@@H]3[C@]4(OC(C)=O)CO[C@@H]4C[C@H](OC)[C@@]3(C)C(=O)[C@H](OC)C(=C1C)C2(C)C)[C@@H](NC(=O)OC(C)(C)C)c1ccccc1)C(F)(F)F.Cl [Compound C11, 2′-O-[4-N,N-diethylamino-2-methyl-2(R)-2-trifluoromethylbutyryl]cabazitaxel hydrochloride]	–	–	–	–	–	51.2	88.4	95.9	61.2	84.5	96.3
COC1C(=O)C2(C)C(OC)CC3OCC3(OC(C)=O)C2C(OC(=O)c2ccccc2)C2(O)CC(OC(=O)C(OC(=O)C(CCN)C(F)F)C(NC(=O)OC(C)(C)C)c3ccccc3)C(C)=C1C2(C)C.O=S(=O)([O-])O.[Na+] [Compound 10, 2′-O-[4-amino-2(R)-difluoromethylbutyryl]cabazitaxel sodium bisulfate salt]	–	–	–	–	–	45.2	86.5	96.8	38.1	63.2	80.3
CCN(CC)CC[C@](C)(C(=O)O[C@@H](C(=O)O[C@H]1C[C@@]2(O)[C@@H](OC(=O)c3ccccc3)[C@@H]3[C@]4(OC(C)=O)CO[C@@H]4C[C@H](OC)[C@@]3(C)C(=O)[C@H](OC)C(=C1C)C2(C)C)[C@@H](NC(=O)OC(C)(C)C)c1ccccc1)C(F)(F)F.CS(=O)(=O)O [Compound 11, 2′-O-[4-N,N-diethylamino-2-methyl-2(R)-2-trifluoromethylbutyryl]cabazitaxel methanesulfonate]	–	–	–	–	–	52.3	89.6	97.2	56.2	80.5	92.1
COC1C(=O)C2(C)C(OC)CC3OCC3(OC(C)=O)C2C(OC(=O)c2ccccc2)C2(O)CC(OC(=O)C(OC(=O)C(F)CCN(C)C)C(NC(=O)OC(C)(C)C)c3ccccc3)C(C)=C1C2(C)C.Cl [Compound 09, 2′-O-[4-N,N-dimethylamino-2(R,S)-fluorobutyryl]cabazitaxel hydrochloride]	–	–	–	–	–	47.8	89.1	100	83.2	97.1	100
CC(=O)O[C@@]12CO[C@@H]1C[C@H](O)[C@@]1(C)C(=O)[C@H](O)C3=C(C)[C@@H](OC(=O)[C@H](OC(=O)[C@H](F)CCN(C)C(C)C)[C@@H](NC(=O)OC(C)(C)C)c4ccccc4)C[C@@](O)([C@@H](OC(=O)c4ccccc4)[C@H]21)C3(C)C.Cl [Compound C27, 2′-O-[4-N-methyl-N-isopropylamino-2(R)-fluorobutyryl]docetaxel hydrochloride]	−14.4	−44	35.3 ± 14.7	101	116.3 ± 3.7	–	–	–	–	–	–
CO[C@H]1C(=O)[C@]2(C)[C@@H](OC)C[C@H]3OC[C@@]3(OC(C)=O)[C@H]2[C@H](OC(=O)c2ccccc2)[C@]2(O)C[C@H](OC(=O)[C@H](OC(=O)[C@@H](CCN)C(F)F)[C@@H](NC(=O)OC(C)(C)C)c3ccccc3)C(C)=C1C2(C)C.O=S(=O)(O)O [Compound C10, 2′-O-[4-amino-2(R)-difluoromethylbutyryl]cabazitaxel sulfate]	–	–	–	–	–	45.6	87.1	97.3	48.9	68.4	91.3
CO[C@H]1C(=O)[C@]2(C)[C@@H](OC)C[C@H]3OC[C@@]3(OC(C)=O)[C@H]2[C@H](OC(=O)c2ccccc2)[C@]2(O)C[C@H](OC(=O)[C@H](OC(=O)[C@H](F)CCN(C)C)[C@@H](NC(=O)OC(C)(C)C)c3ccccc3)C(C)=C1C2(C)C [Compound 07, 2′-O-[4-N,N-dimethylamino-2(R)-fluorobutyryl]cabazitaxel hydrochloride]	–	–	–	–	–	49.5	89.6	100	79.2	95.5	100
CCN(C)C(C)C[C@H](CC(F)F)C(=O)O[C@@H](C(=O)O[C@H]1C[C@@]2(O)[C@@H](OC(=O)c3ccccc3)[C@@H]3[C@]4(OC(C)=O)CO[C@@H]4C[C@H](O)[C@@]3(C)C(=O)[C@H](O)C(=C1C)C2(C)C)[C@@H](NC(=O)OC(C)(C)C)c1ccccc1.Cl (stereo partly drawn) [Compound 12, 2′-O-[4-N-methyl-N-ethylamino-2(R)-2-difluoroethylvaleryl]docetaxel hydrochloride]	–	–	–	–	–	43.6	75.6	89.6	35.2	61.3	73.2
CO[C@H]1C(=O)[C@]2(C)[C@@H](OC)C[C@H]3OC[C@@]3(OC(C)=O)[C@H]2[C@H](OC(=O)c2ccccc2)[C@]2(O)C[C@H](OC(=O)[C@H](OC(=O)[C@@H](F)CCN(C)C)[C@@H](NC(=O)OC(C)(C)C)c3ccccc3)C(C)=C1C2(C)C.Cl [Compound 08, 2′-O-[4-N,N-dimethylamino-2(S)-fluorobutyryl]cabazitaxel hydrochloride]	–	–	–	–	–	47.6	87.6	100	89.9	93.2	100
CCN(CC)CCC(F)C(=O)OC(C(=O)OC1CC2(O)C(OC(=O)c3ccccc3)C3C4(OC(C)=O)COC4CC(O)C3(C)C(=O)C(O)C(=C1C)C2(C)C)C(NC(=O)OC(C)(C)C)c1ccccc1.O=C(O)C=CC(=O)O [Compound C26, 2′-O-[4-N,N-diethylamino-2(S)-fluorobutyryl]docetaxel maleate]	−14.1	−52	32.4 ± 13.5	120	114.4 ± 2.8	–	–	–	–	–	–
CCN(C)CCC(F)C(=O)OC(C(=O)OC1CC2(O)C(OC(=O)c3ccccc3)C3C4(OC(C)=O)COC4CC(O)C3(C)C(=O)C(O)C(=C1C)C2(C)C)C(NC(=O)OC(C)(C)C)c1ccccc1.CS(=O)(=O)O [Compound C25, 2′-O-[4-N-methyl-N-ethylamino-2(R)-fluorobutyryl]docetaxel methanesulfonate]	−13.6	−62	30.4 ± 11.1	143	113.8 ± 3.0	–	–	–	–	–	–
2′-O-[4-(aziridin-1-yl)amino-2,2-difluoroheptanoyl]docetaxel methanesulfonate [Compound 14]	–	–	–	–	–	42.1	55.7	72.5	–	–	–
